Experimental data published in PMC6009875, “Structure–activity relationships of fraxamoside as an unusual xanthine oxidase inhibitor” (Journal of Enzyme Inhibition and Medicinal Chemistry, 2017).
Where two headings read alike, the source gives them in different places. One block for each compound: values may come before it.

What was measured:
[1] = molecular target: T1, Xanthine oxidase from bovine milk (Bos taurus, UniProt P80457); assay: XO inhibition kinetics (Lineweaver-Burk, Ki); assay type: biochemical; details: for Inhibition mode: Lineweaver-Burk plots
T1 construct: Xanthine oxidase from bovine milk (0.2 U/mg); purchased Sigma-Aldrich (St. Louis, MO); host or cells: bovine milk
Method: The assay was carried out in a 500-μL final volume buffer A, constituted by 50 mM phosphate buffer, pH 7.8, 0.1 mM EDTA, supplemented with increasing concentration of xanthine as substrate in the absence or in the presence of variable amounts of the selected inhibitor. The assay was initiated by adding 10 μL of 160 U/L XO solution to the reaction mixture, without or with inhibitors, and it was followed in kinetics by reading the absorbance up to 2 min at 20 °C, thus calculating the rate of acid uric formation in the linear range of the reaction. The kinetic parameters of the XO reaction were derived from Lineweaver–Burk plots obtained measuring the rate of uric acid formation at different xanthine concentration (ranging between 0.4 and10 μM). Inhibition studies were carried out by measuring the kinetic parameters in the presence of different inhibitors. […] Km/Ki + Km.
The kinetic parameters of XO were determined by Lineweaver–Burk plot using a standard curve-fitting program. At each single concentration of substrate, the activity was evaluated in triplicate. […] Correlation and regression analyses and statistical analysis were made with Student’s t-test, using the software KaleidaGraph (Reading, PA). p values lower than 0.05 were considered to be significant.

[2] = molecular target: T1, Xanthine oxidase from bovine milk; assay: XO activity assay (IC50, uric acid formation at 295 nm); assay type: biochemical; details: total absence of methanol; 50 μM xanthine, pH 7.8, 20 °C
Method: The assay was carried out in a 500 μL final volume reaction mixture, containing 50 mM phosphate buffer, pH 7.8, 0.1 mM EDTA, 50 μM xanthine as substrate, 3.2 U/L XO, and different amounts of each compound as potential XO inhibitor. The assay was started by adding 10 μL of the enzyme stock solution to the reaction mixture and followed by reading the absorbance up to 2 min at 20 °C, thus calculating the corresponding rate in the linear range of the reaction. For each sample, the extent of the inhibitory effect (i) was calculated as i = (V0 – Vi)/V0 where V0 and Vi are respectively the rate measured in the absence or presence at least six different amounts of the compounds used [I], whose range of concentration was properly chosen.

XO [3] = system: XO; parameters: method as in Flemmig et al.[52]; details: ref Flemmig et al.[52], cited from earlier work
XO [4] = system: XO; parameters: method as in PMID 25102361; details: read-out: IC50 (XO inhibitory effect); cited from earlier work

T1 sequence (P80457 whole entry): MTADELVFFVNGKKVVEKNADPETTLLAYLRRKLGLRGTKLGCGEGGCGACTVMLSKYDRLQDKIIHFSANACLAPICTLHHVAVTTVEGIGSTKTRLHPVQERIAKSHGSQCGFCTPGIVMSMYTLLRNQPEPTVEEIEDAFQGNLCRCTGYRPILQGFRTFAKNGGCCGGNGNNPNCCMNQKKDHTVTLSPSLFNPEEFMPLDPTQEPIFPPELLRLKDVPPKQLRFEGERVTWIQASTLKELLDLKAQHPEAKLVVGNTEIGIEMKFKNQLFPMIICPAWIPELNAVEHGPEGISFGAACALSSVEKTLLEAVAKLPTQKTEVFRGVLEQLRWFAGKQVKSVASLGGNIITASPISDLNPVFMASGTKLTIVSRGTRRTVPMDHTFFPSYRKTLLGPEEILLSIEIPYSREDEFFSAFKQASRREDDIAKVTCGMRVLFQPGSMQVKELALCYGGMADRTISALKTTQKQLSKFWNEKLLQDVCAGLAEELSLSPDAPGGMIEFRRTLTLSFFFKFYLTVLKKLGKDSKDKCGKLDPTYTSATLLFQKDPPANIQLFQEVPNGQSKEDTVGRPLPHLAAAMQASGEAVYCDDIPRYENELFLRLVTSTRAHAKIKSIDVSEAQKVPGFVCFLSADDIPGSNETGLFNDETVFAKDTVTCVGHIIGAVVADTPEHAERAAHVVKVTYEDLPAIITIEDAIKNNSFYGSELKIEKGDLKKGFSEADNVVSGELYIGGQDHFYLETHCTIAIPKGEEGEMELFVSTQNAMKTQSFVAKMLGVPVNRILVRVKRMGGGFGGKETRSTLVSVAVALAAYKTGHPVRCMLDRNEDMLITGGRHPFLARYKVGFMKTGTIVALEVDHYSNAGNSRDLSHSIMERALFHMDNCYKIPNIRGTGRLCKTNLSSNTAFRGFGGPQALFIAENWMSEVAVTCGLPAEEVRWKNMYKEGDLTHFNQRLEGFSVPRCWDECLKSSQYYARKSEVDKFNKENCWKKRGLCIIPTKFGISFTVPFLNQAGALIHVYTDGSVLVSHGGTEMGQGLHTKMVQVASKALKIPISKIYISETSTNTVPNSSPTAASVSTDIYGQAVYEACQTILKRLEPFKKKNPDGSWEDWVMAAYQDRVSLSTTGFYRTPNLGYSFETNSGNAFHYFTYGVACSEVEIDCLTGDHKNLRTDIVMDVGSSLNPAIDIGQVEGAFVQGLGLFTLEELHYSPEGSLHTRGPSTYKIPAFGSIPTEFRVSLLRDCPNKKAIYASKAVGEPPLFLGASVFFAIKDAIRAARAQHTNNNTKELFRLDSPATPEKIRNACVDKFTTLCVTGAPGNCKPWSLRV

IC50 [2]: 335 ± 17 µM
Compound: C/C=C1/[C@H](O[C@@H]2O[C@H](CO)[C@@H](O)[C@H](O)[C@H]2O)OC=C(C(=O)OC)[C@H]1CC(=O)OCCc1ccc(O)c(O)c1 [Compound 2, oleuropein]
Inhibition mode (XO [3]): Competitive^a
Inhibition mode (XO [3]; listed as oleuropein): competitive inhibition mode
Ki (XO [3]; read-out: Ki): 53 µM

IC50 [2]: 259 ± 13 µM
Compound: C/C=C1/[C@H](O[C@@H]2O[C@H](CO)[C@@H](O)[C@H](O)[C@H]2O)OC=C(C(=O)OC)[C@H]1CC(=O)O [Compound 3, oleoside 11-methyl ester]

Further lines, the compound ahead of its results:

Compound: Oc1ncnc2[nH]ncc12 [Allopurinol, allopurinol, reference compound]
Inhibition mode [1]: competitive inhibition mode

Compound: C/C=C1/[C@H]2OC=C(C(=O)OC)[C@H]1CC(=O)OC[C@@H](c1ccc(O)c(O)c1)OC[C@H]1O[C@@H](O2)[C@H](O)[C@@H](O)[C@@H]1O [Compound 1, fraxamoside]
IC50 [2]: 16.1 ± 0.7 µM
Inhibition mode [1]: Competitive
Inhibition mode ([1]; listed as fraxamoside): competitively inhibited
Ki lower than that of oleuropein (fold) ([1]; fraxamoside Ki versus oleuropein Ki): at least 50 times
Ki ([1]; secondary plot of K'm versus [I], xanthine 0.4-10 μM, pH 7.8, 20 °C): 0.9 ± 0.25 µM

Compound: OCCc1ccc(O)c(O)c1 [Compound 4, hydroxytyrosol]
IC50 [2]: 1130 ± 22 µM
Ki (XO [3]): No inhibition^a

Compound: O=c1c(O[C@@H]2O[C@H](CO)[C@@H](O)[C@H](O)[C@H]2O)c(-c2ccc(O)c(O)c2)oc2cc(O)cc(O)c12 [quercetin 3-O-glucoside]
IC50 (XO [4]): 54.6 µM

Compound: O=c1c(O)c(-c2ccc(O)c(O)c2)oc2cc(O)cc(O)c12 [quercetin]
IC50 (XO [4]): 1.9 µM
